Source: US11661403B2, “Oxadiazole compounds” (Vivace Therapeutics, Inc., priority 2018, dated 2023)

System: 8XTBD luciferase reporter (YAP) in HEK293T cells
Assay: YAP Reporter Assay
Assay type: cell-based
Settings: Homo sapiens, HEK-293T; HEK293T cells stably transfected with 8XTBD luciferase reporter and pRLTK; 24-hr incubation; top concentration 3 μM; read-out: Firefly Luciferase IC50

Structure (SMILES) | IC50 [nM]
O=C(O)Cc1nnc(-c2ccccc2Nc2ccc(C(F)(F)F)cc2)o1 [Compound 119, 2-(5-(2-((4-(trifluoromethyl)phenyl)amino)phenyl)-1,3,4-oxadiazol-2-yl)acetic acid] | 100 to 1000
C#CC(O)Cc1nnc(-c2ccccc2Nc2ccc(C(F)(F)F)cc2)o1 (stereo not drawn) [Compound 120, 1-(5-(2-((4-(trifluoromethyl)phenyl)amino)phenyl)-1,3,4-oxadiazol-2-yl)but-3-yn-2-ol] | < 100
OC(CBr)c1nnc(-c2ccccc2Nc2ccc(C(F)(F)F)cc2)o1 (stereo not drawn) [Compound 121, 2-bromo-1-(5-(2-((4-(trifluoromethyl)phenyl)amino)phenyl)-1,3,4-oxadiazol-2-yl)ethan-1-ol] | < 100
FC(F)(F)c1ccc(Nc2ccccc2-c2nnc(C3CO3)o2)cc1 (stereo not drawn) [Compound 122, 2-(5-(oxiran-2-yl)-1,3,4-oxadiazol-2-yl)-N-(4-(trifluoromethyl)phenyl)aniline] | < 100
C=Cc1nnc(-c2ccccc2Nc2ccc(C(F)(F)F)cc2)o1 [Compound 123, N-(4-(trifluoromethyl)phenyl)-2-(5-vinyl-1,3,4-oxadiazol-2-yl)aniline] | < 100
C#CCC(O)c1nnc(-c2ccccc2Nc2ccc(C(F)(F)F)cc2)o1 (stereo not drawn) [Compound 124, 1-(5-(2-((4-(trifluoromethyl)phenyl)amino)phenyl)-1,3,4-oxadiazol-2-yl)but-3-yn-1-ol] | < 100
N#CCCc1nnc(-c2ccccc2Nc2ccc(C(F)(F)F)cc2)o1 [Compound 126, 3-(5-(2-((4-(trifluoromethyl)phenyl)amino)phenyl)-1,3,4-oxadiazol-2-yl)propanenitrile] | 100 to 1000
CN(C#N)CCCc1nnc(-c2ccccc2Nc2ccc(C(F)(F)F)cc2)o1 [Compound 129, N-methyl-N-(3-(5-(2-((4-(trifluoromethyl)phenyl)amino)phenyl)-1,3,4-oxadiazol-2-yl)propyl)cyanamide] | < 100
CC(O)(CC#N)c1nnc(-c2ccccc2Nc2ccc(C(F)(F)F)cc2)o1 (stereo not drawn) [Compound 130, 3-hydroxy-3-(5-(2-((4-(trifluoromethyl)phenyl)amino)phenyl)-1,3,4-oxadiazol-2-yl)butanenitrile] | < 100
CC1(c2nnc(-c3ccccc3Nc3ccc(C(F)(F)F)cc3)o2)CO1 (stereo not drawn) [Compound 132, 2-(5-(2-methyloxiran-2-yl)-1,3,4-oxadiazol-2-yl)-N-(4-(trifluoromethyl)phenyl)aniline] | < 100
C=C(C)c1nnc(-c2ccccc2Nc2ccc(C(F)(F)F)cc2)o1 [Compound 133, 2-(5-(prop-1-en-2-yl)-1,3,4-oxadiazol-2-yl)-N-(4-(trifluoromethyl)phenyl)aniline] | 100 to 1000
CC(O)(CN)c1nnc(-c2ccccc2Nc2ccc(C(F)(F)F)cc2)o1 (stereo not drawn) [Compound 134, 1-amino-2-(5-(2-((4-(trifluoromethyl)phenyl)amino)phenyl)-1,3,4-oxadiazol-2-yl)propan-2-ol] | 100 to 1000
CCC(C)(O)c1nnc(-c2ccccc2Nc2ccc(C(F)(F)F)cc2)o1 (stereo not drawn) [Compound 135, 2-(5-(2-((4-(trifluoromethyl)phenyl)amino)phenyl)-1,3,4-oxadiazol-2-yl)butan-2-ol] | < 100
NC1(Cc2nnc(-c3ccccc3Nc3ccc(C(F)(F)F)cc3)o2)CC1 [Compound 136, 2-(5-((1-aminocyclopropyl)methyl)-1,3,4-oxadiazol-2-yl)-N-(4-(trifluoromethyl)phenyl)aniline] | 100 to 1000
N#CCc1nnc(-c2ccccc2Nc2ccc(C(F)(F)F)cc2)o1 [Compound 137, 2-(5-(2-((4-(trifluoromethyl)phenyl)amino)phenyl)-1,3,4-oxadiazol-2-yl)acetonitrile] | 100 to 1000
CN(C#N)CC1(c2nnc(-c3ccccc3Nc3ccc(C(F)(F)F)cc3)o2)CC1 [Compound 140, N-methyl-N-((1-(5-(2-((4-(trifluoromethyl)phenyl)amino)phenyl)-1,3,4-oxadiazol-2-yl)cyclopropyl)methyl)cyanamide] | < 100
CN(C#N)C(C)(C)Cc1nnc(-c2ccccc2Nc2ccc(C(F)(F)F)cc2)o1 [Compound 143, N-methyl-N-(2-methyl-1-(5-(2-((4-(trifluoromethyl)phenyl)amino)phenyl)-1,3,4-oxadiazol-2-yl)propan-2-yl)cyanamide] | 1000 to 5000
CNCC(C)(C)c1nnc(-c2ccccc2Nc2ccc(C(F)(F)F)cc2)o1 [Compound 144, 2-(5-(2-methyl-1-(methylamino)propan-2-yl)-1,3,4-oxadiazol-2-yl)-N-(4-(trifluoromethyl)phenyl)aniline] | 100 to 1000
CN(C#N)CC(C)(C)c1nnc(-c2ccccc2Nc2ccc(C(F)(F)F)cc2)o1 [Compound 146, N-methyl-N-(2-methyl-2-(5-(2-((4-(trifluoromethyl)phenyl)amino)phenyl)-1,3,4-oxadiazol-2-yl)propyl)cyanamide] | < 100
CNC(C)Cc1nnc(-c2ccccc2Nc2ccc(C(F)(F)F)cc2)o1 (stereo not drawn) [Compound 147, 2-(5-(2-(methylamino)propyl)-1,3,4-oxadiazol-2-yl)-N-(4-(trifluoromethyl)phenyl)aniline] | 1000 to 5000

Structure (SMILES) | IC50 [nM]
CC(Cc1nnc(-c2ccccc2Nc2ccc(C(F)(F)F)cc2)o1)N(C)C#N (stereo not drawn) [Compound 149, N-methyl-N-(1-(5-(2-((4-(trifluoromethyl)phenyl)amino)phenyl)-1,3,4-oxadiazol-2-yl)propan-2-yl)cyanamide] | < 100
CNCC(C)c1nnc(-c2ccccc2Nc2ccc(C(F)(F)F)cc2)o1 (stereo not drawn) [Compound 150, 2-(5-(1-(methylamino)propan-2-yl)-1,3,4-oxadiazol-2-yl)-N-(4-(trifluoromethyl)phenyl)aniline] | 100 to 1000
CC(CN(C)C#N)c1nnc(-c2ccccc2Nc2ccc(C(F)(F)F)cc2)o1 (stereo not drawn) [Compound 152, N-methyl-N-(2-(5-(2-((4-(trifluoromethyl)phenyl)amino)phenyl)-1,3,4-oxadiazol-2-yl)propyl)cyanamide] | < 100
CNC1(c2nnc(-c3ccccc3Nc3ccc(C(F)(F)F)cc3)o2)CC1 [Compound 153, 2-(5-(1-(methylamino)cyclopropyl)-1,3,4-oxadiazol-2-yl)-N-(4-(trifluoromethyl)phenyl)aniline] | 100 to 1000
CN(C#N)C1(c2nnc(-c3ccccc3Nc3ccc(C(F)(F)F)cc3)o2)CC1 [Compound 155, N-methyl-N-(1-(5-(2-((4-(trifluoromethyl)phenyl)amino)phenyl)-1,3,4-oxadiazol-2-yl)cyclopropyl)cyanamide] | < 100
CNC(C)(C)c1nnc(-c2ccccc2Nc2ccc(C(F)(F)F)cc2)o1 [Compound 156, 2-(5-(2-(methylamino)propan-2-yl)-1,3,4-oxadiazol-2-yl)-N-(4-(trifluoromethyl)phenyl)aniline] | 100 to 1000
CN(C#N)C(C)(C)c1nnc(-c2ccccc2Nc2ccc(C(F)(F)F)cc2)o1 [Compound 158, N-methyl-N-(2-(5-(2-((4-(trifluoromethyl)phenyl)amino)phenyl)-1,3,4-oxadiazol-2-yl)propan-2-yl)cyanamide] | < 100
CNC(C)c1nnc(-c2ccccc2Nc2ccc(C(F)(F)F)cc2)o1 (stereo not drawn) [Compound 159, 2-(5-(1-(methylamino)ethyl)-1,3,4-oxadiazol-2-yl)-N-(4-(trifluoromethyl)phenyl)aniline] | 100 to 1000
CC(c1nnc(-c2ccccc2Nc2ccc(C(F)(F)F)cc2)o1)N(C)C#N (stereo not drawn) [Compound 161, N-methyl-N-(1-(5-(2-((4-(trifluoromethyl)phenyl)amino)phenyl)-1,3,4-oxadiazol-2-yl)ethyl)cyanamide] | < 100
CC(C)(C(N)=O)c1nnc(-c2ccccc2Nc2ccc(C(F)(F)F)cc2)o1 [Compound 162, 2-methyl-2-(5-(2-((4-(trifluoromethyl)phenyl)amino)phenyl)-1,3,4-oxadiazol-2-yl)propanamide] | < 100
CC(C)(c1nnc(-c2ccccc2Nc2ccc(C(F)(F)F)cc2)o1)S(C)(=O)=O [Compound 163, 2-(5-(2-(methylsulfonyl)propan-2-yl)-1,3,4-oxadiazol-2-yl)-N-(4-(trifluoromethyl)phenyl)aniline] | 100 to 1000
CC(C)(C#N)c1nnc(-c2ccccc2Nc2ccc(C(F)(F)F)cc2)o1 [Compound 164, 2-methyl-2-(5-(2-((4-(trifluoromethyl)phenyl)amino)phenyl)-1,3,4-oxadiazol-2-yl)propanenitrile] | < 100
O=C(O)C1(c2nnc(-c3ccccc3Nc3ccc(C(F)(F)F)cc3)o2)CC1 [Compound 166, 1-(5-(2-((4-(trifluoromethyl)phenyl)amino)phenyl)-1,3,4-oxadiazol-2-yl)cyclopropane-1-carboxylic Acid] | < 100
CN(Cc1nnc(-c2ccccc2Nc2ccc(C(F)(F)F)cc2)o1)C(=O)OC(C)(C)C [Compound 167, Tert-Butyl Methyl((5-(2-((4-(trifluoromethyl)phenyl)amino)phenyl)-1,3,4-oxadiazol-2-yl)methyl)carbamate] | 1000 to 5000
CN(C#N)Cc1nnc(-c2ccccc2Nc2ccc(C(F)(F)F)cc2)o1 [Compound 168, N-methyl-N-((5-(2-((4-(trifluoromethyl)phenyl)amino)phenyl)-1,3,4-oxadiazol-2-yl)methyl)cyanamide] | < 100
FC(F)(F)c1ccc(Nc2ccccc2-c2nnc(C3CCCN3)o2)cc1 (stereo not drawn) [Compound 169, 2-(5-(pyrrolidin-2-yl)-1,3,4-oxadiazol-2-yl)-N-(4-(trifluoromethyl)phenyl)aniline] | 100 to 1000
N#CN1CCCC1c1nnc(-c2ccccc2Nc2ccc(C(F)(F)F)cc2)o1 (stereo not drawn) [Compound 171, 2-(5-(2-((4-(trifluoromethyl)phenyl)amino)phenyl)-1,3,4-oxadiazol-2-yl)pyrrolidine-1-carbonitrile] | < 100
CNCCc1nnc(-c2ccccc2Nc2ccc(C(F)(F)F)cc2)o1 [Compound 172, 2-(5-(2-(methylamino)ethyl)-1,3,4-oxadiazol-2-yl)-N-(4-(trifluoromethyl)phenyl)aniline] | 1000 to 5000
CN(C#N)CCc1nnc(-c2ccccc2Nc2ccc(C(F)(F)F)cc2)o1 [Compound 174, N-methyl-N-(2-(5-(2-((4-(trifluoromethyl)phenyl)amino)phenyl)-1,3,4-oxadiazol-2-yl)ethyl)cyanamide] | < 100
